Measured values: patent publication US7678815B2, “Thiazole-4-carboxyamide derivatives” (Hoffmann-La Roche Inc., priority 2005, dated 2010)

The molecules below were run against T1, human mGlu 5a receptor (Homo sapiens, UniProt P41594) (assay: [3H]MPEP competition binding on membranes of EBNA cells transfected with human mGlu 5a receptor). Conditions: competition with [3H]MPEP (2 nM), 1 h at 4° C., Ki=IC50/[1+L/Kd].
T1 construct: expressed in transfected cells; host or cells: EBNA cells (transient transfection), cell membrane homogenates
Procedure: The pharmacological activity of the compounds was tested using the following method: For binding experiments, cDNA encoding human mGlu 5a receptor was transiently transfected into EBNA cells using a procedure described by Schlaeger and Christensen [Cytotechnology 15:1-13 (1998)]. Cell membrane homogenates were stored at −80° C. until the day of assay where upon they were thawed and resuspended and polytronized in 15 mM Tris-HCl, 120 mM NaCl, 100 mM KCl, 25 mM CaCl2, 25 mM MgCl2 binding buffer at pH 7.4 to a final assay concentration of 20 μg protein/well.
Saturation isotherms were determined by addition of twelve [^3H]MPEP concentrations (0.04-100 nM) to these membranes (in a total volume of 200 μl) for 1 h at 4° C. Competition experiments were performed with a fixed concentration of [^3H]MPEP (2 nM) and IC50 values of test compounds evaluated using 11 concentrations (0.3-10,000 nM). Incubations were performed for 1 h at 4° C.
At the end of the incubation, membranes were filtered onto unifilter (96-well white microplate with bonded GF/C filter preincubated 1 h in 0.1% PEI in wash buffer, Packard Bio-Science, Meriden, Conn.) with a Filtermate 96 harvester (Packard BioScience) and washed 3 times with cold 50 mM Tris-HCl, pH 7.4 buffer. Nonspecific binding was measured in the presence of 10 μM MPEP. The radioactivity on the filter was counted (3 min) on a Packard Top-count microplate scintillation counter with quenching correction after addition of 45 μl of microscint 40 (Canberra Packard S.A., Zürich, Switzerland) and shaking for 20 min.
For binding experiments the Ki values of the compounds tested are given. The Ki value is defined by the following formula: Ki=IC50/[1+L/Kd] in which the IC50 values are those concentrations of the compounds tested which cause 50% inhibition of the competing radioligand ([^3H]MPEP). L is the concentration of radioligand used in the binding experiment and the Kd value of the radioligand is empirically determined for each batch of membranes prepared.

T1 sequence (P41594 21-1180 isoform P41594-2 limits assumed): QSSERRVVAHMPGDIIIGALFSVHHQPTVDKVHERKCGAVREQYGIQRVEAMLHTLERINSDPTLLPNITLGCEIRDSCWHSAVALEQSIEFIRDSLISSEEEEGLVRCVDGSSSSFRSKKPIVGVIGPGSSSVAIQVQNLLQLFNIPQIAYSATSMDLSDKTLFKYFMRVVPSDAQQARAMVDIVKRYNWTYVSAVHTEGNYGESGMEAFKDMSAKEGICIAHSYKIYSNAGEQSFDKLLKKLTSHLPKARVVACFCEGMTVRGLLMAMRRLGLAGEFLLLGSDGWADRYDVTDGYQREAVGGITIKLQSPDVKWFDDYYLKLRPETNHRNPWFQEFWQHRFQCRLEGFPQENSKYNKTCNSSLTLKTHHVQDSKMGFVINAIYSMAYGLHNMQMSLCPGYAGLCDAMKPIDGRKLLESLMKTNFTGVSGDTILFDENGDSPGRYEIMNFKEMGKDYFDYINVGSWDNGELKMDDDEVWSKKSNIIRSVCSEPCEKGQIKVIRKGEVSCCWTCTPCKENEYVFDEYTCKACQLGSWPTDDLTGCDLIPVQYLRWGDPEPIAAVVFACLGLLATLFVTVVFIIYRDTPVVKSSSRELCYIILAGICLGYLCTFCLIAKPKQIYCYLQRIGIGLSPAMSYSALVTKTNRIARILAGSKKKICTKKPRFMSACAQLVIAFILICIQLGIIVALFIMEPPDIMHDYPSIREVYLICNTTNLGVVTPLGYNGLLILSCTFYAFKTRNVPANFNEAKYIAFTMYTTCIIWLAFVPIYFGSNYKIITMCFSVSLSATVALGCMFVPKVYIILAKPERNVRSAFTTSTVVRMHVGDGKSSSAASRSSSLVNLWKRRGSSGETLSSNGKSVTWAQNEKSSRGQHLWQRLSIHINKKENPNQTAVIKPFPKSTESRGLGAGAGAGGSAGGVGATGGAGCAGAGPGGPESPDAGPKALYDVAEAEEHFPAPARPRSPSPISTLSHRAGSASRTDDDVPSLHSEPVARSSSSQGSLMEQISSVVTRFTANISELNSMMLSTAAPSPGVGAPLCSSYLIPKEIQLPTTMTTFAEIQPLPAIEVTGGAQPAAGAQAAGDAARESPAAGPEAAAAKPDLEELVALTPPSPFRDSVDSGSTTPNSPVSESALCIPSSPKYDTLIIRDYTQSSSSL

Row | Ki [nM] | SMILES
1 | 458 | O=C(Nc1cccc(Cl)c1)c1ncsc1NC1CC1 [Example 18, 5-Cyclopropylamino-thiazole-4-carboxylic acid (3-chloro-phenyl)-amide]
2 | 53 | Cc1cccc(NC(=O)c2nc(C)sc2Nc2cccc(S(C)(=O)=O)c2)n1 [Example 149, 5-(3-Methanesulfonyl-phenylamino)-2-methyl-thiazole-4-carboxylic acid (6-methyl-pyridin-2-yl)-amide]
3 | 127 | CNc1scnc1C(=O)Nc1cccc(Cl)c1 [Example 24, 5-Methylamino-thiazole-4-carboxylic acid (3-chloro-phenyl)-amide]
4 | 40 | Cc1nc(C(=O)Nc2cccc(Cl)c2)c(Nc2cccc(CNC(=O)OC(C)(C)C)c2)s1 [Example 145, {3-[4-(3-Chloro-phenylcarbamoyl)-2-methyl-thiazol-5-ylamino]-benzyl}-carbamic acid tert-butyl ester]
5 | 18 | CC(=O)c1cccc(Nc2scnc2C(=O)Nc2cccc(C)n2)c1 [Example 88, 5-(3-Acetyl-phenylamino)-thiazole-4-carboxylic acid (6-methyl-pyridin-2-yl)-amide]
6 | 124 | O=C(Nc1cccc(Cl)c1)c1ncsc1Nc1cccnc1 [Example 2, 5-(Pyridin-3-ylamino)-thiazole-4-carboxylic acid (3-chloro-phenyl)-amide]
7 | 99 | Cc1cccc(NC(=O)c2ncsc2Nc2c(C)noc2C)n1 [Example 74, 5-(3,5-Dimethyl-isoxazol-4-ylamino)-thiazole-4-carboxylic acid (6-methyl-pyridin-2-yl)-amide]
8 | 40 | Cc1nccc(NC(=O)c2nc(C)sc2Nc2cccc(C(N)=O)c2)n1 [Example 209, 5-(3-Carbamoyl-phenylamino)-2-methyl-thiazole-4-carboxylic acid (2-methyl-pyrimidin-4-yl)-amide]
9 | 19 | Cc1csc(NC(=O)c2ncsc2Nc2cccc(C#N)c2)n1 [Example 81, 5-(3-Cyano-phenylamino)-thiazole-4-carboxylic acid (4-methyl-thiazol-2-yl)-amide]
10 | 26 | Cc1cccc(NC(=O)c2ncsc2Nc2ccccc2)n1 [Example 13, 5-Phenylamino-thiazole-4-carboxylic acid (6-methyl-pyridin-2-yl)-amide]
11 | 29 | Cc1cccc(NC(=O)c2ncsc2Nc2cccnc2)n1 [Example 1, 5-(Pyridin-3-ylamino)-thiazole-4-carboxylic acid (6-methyl-pyridin-2-yl)-amide]
